The source made the active and inactive calls. For most assays here, no stated cut-off is given here; in the data, actives have a measured EC50 and inactives only a lower limit.
System: not listed separately
Assay: luciferase reporter signal suppression in cells – H4 neuroglioma cells, luminescence, dose response (AID 1990)
Type: functional, cell-based
Conditions: not given

SMILES	EC50
CN(C)S(=O)(=O)Oc1ccsc1C(=O)Nc1ccccc1Cl	> 120 µM (not active)
CCC(C)n1ncn(-c2ccc(N3CCN(c4ccc(O)cc4)CC3)cc2)c1=O (stereo not given)	> 120 µM (not active)
Cc1ccc(NC(=O)COc2ccc(/C=C3/S/C(=N/c4ccccc4)N(Cc4cccnc4)C3=O)cc2)cc1	> 120 µM (not active)
COc1ccccc1N1CCN(C(=O)Cn2nc(C(F)(F)F)c3c2CCC3)CC1	> 120 µM (not active)
CCO/C(O)=C1\C(C)=Nc2sc(C(=O)c3ccc(C)cc3)c(N)c2C1c1ccc(C(=O)OC)cc1 (stereo not given)	> 120 µM (not active)
CC(Oc1cccc(Cl)c1)C(=O)Nc1ccc([N+](=O)[O-])cn1 (stereo not given)	21.4 µM (active)
N=c1c(S(=O)(=O)c2ccc(Cl)cc2)cc2c(=O)n3ccccc3nc2n1C1CCCC1	24.8 µM (active)
COc1cccc2cc(/C(=N/O)c3ccc(Br)cc3)oc12	14.6 µM (active)

Target: T1, RNA-binding protein pos-1 (Caenorhabditis elegans, UniProt G5EF15)
T1 sequence (G5EF15 whole entry): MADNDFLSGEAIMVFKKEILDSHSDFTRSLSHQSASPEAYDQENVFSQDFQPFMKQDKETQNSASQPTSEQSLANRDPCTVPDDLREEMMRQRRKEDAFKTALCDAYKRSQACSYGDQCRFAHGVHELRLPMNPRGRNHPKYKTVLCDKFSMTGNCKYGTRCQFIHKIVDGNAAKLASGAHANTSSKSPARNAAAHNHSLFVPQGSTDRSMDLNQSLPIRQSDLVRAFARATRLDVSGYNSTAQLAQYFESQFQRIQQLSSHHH
Assay: disruptors of C. elegans POS-1 RNA interaction – biochemical, fluorescence polarization, dose response (AID 1964);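 further: purified POS-1 fused to maltose binding protein made in E. coli; potency of compounds blocking POS-1 binding to fluorescent RNA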
Conditions: not given

SMILES	EC50
Cc1ccc(NC(=O)COc2ccc(/C=C3/S/C(=N/c4ccccc4)N(Cc4cccnc4)C3=O)cc2)cc1	> 300 µM (not active)
N=c1c(S(=O)(=O)c2ccc(Cl)cc2)cc2c(=O)n3ccccc3nc2n1C1CCCC1	135 µM (active)

System: not listed separately
Assay: Luminescence Cell-Based Dose Response HTS to Identify Inhibitors of 5'UTR Stem-Loop Driven Prion Protein mRNA Translation in H4 Neuroglioblastoma Cells. [Related pubchem assays: 1827 (Project Summary), 1813 (Primary HTS)]
Type: functional
Conditions: not given

SMILES	EC50
CN(C)S(=O)(=O)Oc1ccsc1C(=O)Nc1ccccc1Cl	> 120 µM (not active)
CCC(C)n1ncn(-c2ccc(N3CCN(c4ccc(O)cc4)CC3)cc2)c1=O (stereo not given)	19.7 µM (active)
Cc1ccc(NC(=O)COc2ccc(/C=C3/S/C(=N/c4ccccc4)N(Cc4cccnc4)C3=O)cc2)cc1	> 120 µM (not active)
COc1ccccc1N1CCN(C(=O)Cn2nc(C(F)(F)F)c3c2CCC3)CC1	> 120 µM (not active)
CCO/C(O)=C1\C(C)=Nc2sc(C(=O)c3ccc(C)cc3)c(N)c2C1c1ccc(C(=O)OC)cc1 (stereo not given)	> 120 µM (not active)
CC(Oc1cccc(Cl)c1)C(=O)Nc1ccc([N+](=O)[O-])cn1 (stereo not given)	> 120 µM (not active)
N=c1c(S(=O)(=O)c2ccc(Cl)cc2)cc2c(=O)n3ccccc3nc2n1C1CCCC1	> 120 µM (not active)
COc1cccc2cc(/C(=N/O)c3ccc(Br)cc3)oc12	18.6 µM (active)

Target: T2, Zinc finger protein mex-5 (Caenorhabditis elegans, UniProt Q9XUB2)
T2 sequence (Q9XUB2 whole entry): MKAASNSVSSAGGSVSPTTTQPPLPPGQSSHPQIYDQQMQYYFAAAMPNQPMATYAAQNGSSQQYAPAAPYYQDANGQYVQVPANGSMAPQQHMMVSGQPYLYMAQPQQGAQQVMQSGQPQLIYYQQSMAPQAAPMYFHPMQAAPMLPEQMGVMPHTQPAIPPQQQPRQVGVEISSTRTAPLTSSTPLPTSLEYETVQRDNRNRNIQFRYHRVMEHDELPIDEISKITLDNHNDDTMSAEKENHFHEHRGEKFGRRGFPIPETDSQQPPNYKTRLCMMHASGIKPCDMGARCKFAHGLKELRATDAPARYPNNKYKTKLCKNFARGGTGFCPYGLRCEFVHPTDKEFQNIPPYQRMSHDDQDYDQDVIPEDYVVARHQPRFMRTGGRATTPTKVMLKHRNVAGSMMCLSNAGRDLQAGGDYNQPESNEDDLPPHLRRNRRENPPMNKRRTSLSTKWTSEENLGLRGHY
Assay: potency of MEX-5 RNA-binding blockers – biochemical, C. elegans, fluorescence polarization, dose response (AID 1960)
Conditions: not given

SMILES	EC50
Cc1ccc(NC(=O)COc2ccc(/C=C3/S/C(=N/c4ccccc4)N(Cc4cccnc4)C3=O)cc2)cc1	> 300 µM (not active)
N=c1c(S(=O)(=O)c2ccc(Cl)cc2)cc2c(=O)n3ccccc3nc2n1C1CCCC1	148 µM (inconclusive)

System: not listed separately
Assay: alpha-synuclein stem-loop luciferase translation blockers – H4 neuroglioma cells, luminescence, confirmation (AID 1988)
Type: functional, cell-based
Conditions: not given

SMILES	EC50
CN(C)S(=O)(=O)Oc1ccsc1C(=O)Nc1ccccc1Cl	15.7 µM (active)
Cc1ccc(NC(=O)COc2ccc(/C=C3/S/C(=N/c4ccccc4)N(Cc4cccnc4)C3=O)cc2)cc1	> 120 µM (not active)
COc1ccccc1N1CCN(C(=O)Cn2nc(C(F)(F)F)c3c2CCC3)CC1	> 120 µM (not active)
CCO/C(O)=C1\C(C)=Nc2sc(C(=O)c3ccc(C)cc3)c(N)c2C1c1ccc(C(=O)OC)cc1 (stereo not given)	> 120 µM (not active)
CC(Oc1cccc(Cl)c1)C(=O)Nc1ccc([N+](=O)[O-])cn1 (stereo not given)	59.8 µM (active)
N=c1c(S(=O)(=O)c2ccc(Cl)cc2)cc2c(=O)n3ccccc3nc2n1C1CCCC1	31.7 µM (active)
COc1cccc2cc(/C(=N/O)c3ccc(Br)cc3)oc12	12.8 µM (active)

System: not listed separately
Assay: Trypanosoma cruzi growth suppression in host cells – NIH3T3 host cells, beta-gal luminescence, confirmation (AID 2044);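 further: intracellular parasites grown in NIH/3T3 mouse fibroblasts as host cells; luminescent beta-galactosidase reporter signal from transgenic T. cruzi replicating inside host cells; inhibitors lower the luminescence signal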
Type: functional, cell-based
Conditions: not given

SMILES	EC50
Cc1cccc(NC(=O)Nc2cccc(Oc3c(F)c(F)c(F)c(F)c3F)c2)c1	3.06 µM (active)
Fc1ccccc1COc1ccccc1CNCc1ccncc1	1.45 µM (active)
N=c1c(S(=O)(=O)c2ccc(Cl)cc2)cc2c(=O)n3ccccc3nc2n1C1CCCC1	0.87 µM (active)

System: not listed separately
Assay: viability of PTEN-deleted HCT116 cells – cell-based, HCT116 PTEN knockout, dose response (AID 1047);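 further: HCT116 colon tumor cells with PTEN knocked out; cells exposed to compound for 60 hours before readout; potency for loss of cell viability measured by luminescence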
Type: functional
Conditions: not given

SMILES	EC50
Cc1ccc(C)c(N2CCN(CCCNC(=O)Cn3cc4c(n3)CCCCC4)CC2)c1	14.5 µM (active)
Cc1cccc(NC(=O)Nc2cccc(Oc3c(F)c(F)c(F)c(F)c3F)c2)c1	17.3 µM (active)
COc1cc(C(=O)Nc2nc(-c3ccc(Cl)cc3)c(C)s2)ccc1OCC(=O)Nc1ccc(F)cc1	1.92 µM (active)
CC(=O)Nc1cccc(C(=O)/C=C/c2cccs2)c1	11.3 µM (active)
Cc1cc(C)cc(C(=O)NC(=S)Nc2ccc(-c3cc4ccccc4oc3=O)cc2)c1	11.7 µM (active)

System: not listed separately
Assay: NIH3T3 cell viability loss – ATP luminescence, mouse fibroblasts, counter-screen, dose response (AID 2010);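 further: cells exposed to compound for about 90 hours before reading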
Type: functional, cell-based
Conditions: not given

SMILES	EC50
Cc1cccc(NC(=O)Nc2cccc(Oc3c(F)c(F)c(F)c(F)c3F)c2)c1	7.63 µM (active)
Fc1ccccc1COc1ccccc1CNCc1ccncc1	> 60 µM (not active)
N=c1c(S(=O)(=O)c2ccc(Cl)cc2)cc2c(=O)n3ccccc3nc2n1C1CCCC1	11.4 µM (active)

System: not listed separately
Assay: viability of HCT116 lacking mutant beta-catenin – cell-based, human colon tumor, dose response (AID 1045);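 further: HCT116 colon tumor cells with beta catenin knocked out; cells exposed to compound for 60 hours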
Type: functional
Conditions: not given

SMILES	EC50
Cc1ccc(C)c(N2CCN(CCCNC(=O)Cn3cc4c(n3)CCCCC4)CC2)c1	11.8 µM (active)
Cc1cccc(NC(=O)Nc2cccc(Oc3c(F)c(F)c(F)c(F)c3F)c2)c1	24.5 µM (active)
COc1cc(C(=O)Nc2nc(-c3ccc(Cl)cc3)c(C)s2)ccc1OCC(=O)Nc1ccc(F)cc1	1.46 µM (active)
CC(=O)Nc1cccc(C(=O)/C=C/c2cccs2)c1	7.79 µM (active)
Cc1cc(C)cc(C(=O)NC(=S)Nc2ccc(-c3cc4ccccc4oc3=O)cc2)c1	12.4 µM (active)

System: not listed separately
Assay: Luminescence Cell-Based Dose Retest to Confirm Inhibitors of Cancer Stem Cells. [Related pubchem assays (depositor defined):AID2717, AID2721]
Type: functional
Conditions: Homo sapiens

SMILES	AC50
CCC(C)n1ncn(-c2ccc(N3CCN(c4ccc(O)cc4)CC3)cc2)c1=O (stereo not given)	1.2 µM (active)

Target: T3, Short transient receptor potential channel 4 (Mus musculus, UniProt Q9QUQ5)
T3 sequence (Q9QUQ5 whole entry): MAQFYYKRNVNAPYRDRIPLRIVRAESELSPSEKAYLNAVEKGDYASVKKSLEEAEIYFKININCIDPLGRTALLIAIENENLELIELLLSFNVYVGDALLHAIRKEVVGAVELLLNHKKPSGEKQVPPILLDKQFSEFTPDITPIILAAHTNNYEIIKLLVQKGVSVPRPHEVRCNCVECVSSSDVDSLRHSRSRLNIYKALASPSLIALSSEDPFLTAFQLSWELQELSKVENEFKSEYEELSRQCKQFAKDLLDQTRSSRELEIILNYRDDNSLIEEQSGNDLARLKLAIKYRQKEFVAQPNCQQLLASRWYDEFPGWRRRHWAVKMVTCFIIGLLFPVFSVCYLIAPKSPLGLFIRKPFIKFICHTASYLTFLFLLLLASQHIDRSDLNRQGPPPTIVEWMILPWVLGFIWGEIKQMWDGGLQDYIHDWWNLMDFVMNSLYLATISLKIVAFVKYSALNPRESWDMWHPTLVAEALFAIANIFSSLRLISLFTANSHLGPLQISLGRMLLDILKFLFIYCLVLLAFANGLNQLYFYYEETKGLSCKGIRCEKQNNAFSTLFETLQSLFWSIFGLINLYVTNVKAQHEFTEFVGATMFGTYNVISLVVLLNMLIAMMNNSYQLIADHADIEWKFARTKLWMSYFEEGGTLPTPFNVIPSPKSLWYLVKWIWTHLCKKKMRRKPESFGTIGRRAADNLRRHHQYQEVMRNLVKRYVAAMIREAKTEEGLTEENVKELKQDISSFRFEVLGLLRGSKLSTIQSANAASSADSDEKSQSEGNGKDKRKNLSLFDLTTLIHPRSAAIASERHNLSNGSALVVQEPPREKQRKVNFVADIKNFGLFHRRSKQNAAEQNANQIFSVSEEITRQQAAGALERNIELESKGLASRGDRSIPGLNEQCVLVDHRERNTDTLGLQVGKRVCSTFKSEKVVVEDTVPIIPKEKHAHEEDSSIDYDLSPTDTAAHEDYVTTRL
Assay: block of DAMGO-driven TRPC4 calcium entry – cell-based, HEK293 TRPC4/mu-opioid, Fluo-4 calcium, dose response (AID 434942);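 further: potency of inhibitors blocking the TRPC4 calcium response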
Type: functional
Conditions: not given

SMILES	EC50
Fc1ccccc1COc1ccccc1CNCc1ccncc1	7.5 µM (active)
CC(OCC(O)CN(C)CCOc1ccccc1)c1ccc(Cl)cc1 (stereo not given)	3.76 µM (active)
Cc1cccc2cc(CN(Cc3nnnn3Cc3ccccc3)C3CCCC3)c(O)nc12	0.149 µM (active)
CCOC(=O)c1c(NC(=O)C2CCCCC2C(=O)O)sc2c1CCCCC2 (stereo not given)	5.96 µM (active)
CCOc1c(Cl)cc(CNC(C)C(O)c2ccccc2)cc1OC (stereo not given)	1.33 µM (active)

System: INS1
Assay: INS-1E survival protection against cytokine death – cell-based, luminescence, retest, dose response (AID 449756);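 further: cell death triggered by IL-1 beta plus TNF-alpha plus IFN-gamma mixture; protective hits raise ATP signal compared with cytokine alone wells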
Type: functional
Conditions: Rattus norvegicus

SMILES	AC50
Cc1cccc(NC(=O)Nc2cccc(Oc3c(F)c(F)c(F)c(F)c3F)c2)c1	4.92 µM (active)

Reference: ChEMBL document CHEMBL1201862, “PubChem BioAssay data set” (2004)
